Source: patent US7579180B2, “Beta secretase polypeptides” (Amgen Inc., priority 1999, dated 2009)

Experiments:
[1] = biological target: T1, human beta-secretase-Fc fusion (Homo sapiens, UniProt P56817); assay: Beta-secretase activity assay: cleavage of DNP-labeled APP peptides, HPLC; assay type: biochemical; conditions: peptide substrate 20 μM, pH 5.0, about 6 hours, room temperature; FIG. 11
T1 construct: A plasmid containing cDNA encoding amino acids 1-460 of beta-secretase fused to the Fc portion of human IgG; made in house; host or cells: human embryonic kidney 293T cells, stably transfected; purified from conditioned medium on protein A
T1 sequence (P56817 with tags, fused parts or gaps limits assumed): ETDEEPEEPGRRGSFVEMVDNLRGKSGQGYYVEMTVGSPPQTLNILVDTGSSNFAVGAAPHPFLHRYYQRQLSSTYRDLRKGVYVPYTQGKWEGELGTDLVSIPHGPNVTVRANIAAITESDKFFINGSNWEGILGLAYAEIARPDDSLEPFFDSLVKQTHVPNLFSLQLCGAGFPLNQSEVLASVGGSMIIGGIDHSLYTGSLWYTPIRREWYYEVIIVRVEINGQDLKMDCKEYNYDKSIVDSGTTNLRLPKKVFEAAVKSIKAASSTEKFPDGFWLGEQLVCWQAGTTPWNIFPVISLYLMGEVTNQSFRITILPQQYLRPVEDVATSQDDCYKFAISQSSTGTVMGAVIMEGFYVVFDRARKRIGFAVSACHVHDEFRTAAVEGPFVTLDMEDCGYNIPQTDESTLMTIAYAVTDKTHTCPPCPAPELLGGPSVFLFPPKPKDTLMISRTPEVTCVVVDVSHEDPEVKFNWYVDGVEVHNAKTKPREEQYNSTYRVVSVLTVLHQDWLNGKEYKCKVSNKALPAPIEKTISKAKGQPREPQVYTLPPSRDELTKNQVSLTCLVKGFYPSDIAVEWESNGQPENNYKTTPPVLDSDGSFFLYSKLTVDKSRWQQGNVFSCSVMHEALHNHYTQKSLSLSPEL
Experimental: FIG. 11 is a graph depicting the ability of human beta-secretase-Fc fusion to cleave various APP peptides. The X-axis is the amount of enzyme in the reaction mixture and the Y-axis is the amount of cleavage (denoted as pmol product formed) of each of three substrate peptides. “Sw” refers to the APP peptide with the Swedish mutation; “Wt” refers to wild type APP peptide; and “MV” refers to a mutated APP peptide.
Recombinant native as well as mutant beta secretase polypeptides were assayed for activity by measuring the ability of the molecule to cleave various A-beta peptides.
Each assay was conducted as follows. […] Quenched reactions were analyzed by HPLC on a 5 μm, C18 reversed-phase column (Sephasil Peptide, 4.6×100 mm; Amersham Pharmacia Biotech, Piscataway, N.J.) using first a linear gradient of 18-31.5 percent acetonitrile in 0.1 percent TFA over 40 minutes, then 31.5-81 percent acetonitrile for 1 minute, then 81 percent acetonitrile for 4 minutes, and then returning to 18-percent acetonitrile for several minutes to reequilibrate the column. […] Proteolysis of the Sw and WT octapeptides was evaluated using a linear gradient of 27-37.8 percent acetonitrile over 24 minutes on the same column.
Both product and substrate were monitored by absorbance at 360 nm. […]
The concentration of standard was determined from the extinction coefficient of DNP (e365nm=16 mM^−1cm^−1). […]

293T-APPsw101 cell line [2] = assay: Assay for total beta amyloid peptide in medium of transfected cells; assay type: cell-based, human; conditions: Single Clone; diluted 1:10 into pCMVi vector DNA; average of duplicate transfections
Experimental: (§1) A duplicate of each master cDNA 96 well plate was prepared. Each well of the duplicate plate contained about 75 microliters of Optimem I medium (Life Technologies Inc, Gaithersburg, Md.) and about 300 ng of cDNA library. About 75 microliters of a mixture of 12 microliters DMRIE-C Lipid per ml of Optimem I medium (Life Technologies Inc., Gaithersburg, Md.) was added to each well of the 96 well plate using a Multipette (Sagian Inc. Indianapolis, Ind.) robotic pipettor. The DMRIE C was allowed to complex for about 30 minutes. Meanwhile, the media was removed from a 96 well dish in which each well had been plated with about 15,000 cells/well of the 293T-APPsw 101 cell line two days before. About 125 microliters of the DNA/Lipid complex was added to each well of cells. The cells containing the DNA/lipid mixture were then incubated at 37 degrees C., 5 percent CO2 for about five hours. After incubation, 125 μl Optimem I supplemented with 20 percent FBS and 2× Penicillin/Streptomycin (0.1 unit/ml Penicillin, 0.1 μg/ml Streptomycin) (Life Technologies Inc., Gaithersburg, Md.) was added to stop the transfection. […] The medium from each well was then harvested, diluted 1:1 in Superblock (Pierce Inc., Rockford, Ill.), stamped into pre-coated ELISA plates and analyzed for the presence of A-beta as described below. […]

293T-APPsw101 cell line [3] = assay: Assay for the 42 amino acid form of A-beta in medium of transfected cells; assay type: cell-based, human; conditions: Single Clone
Experimental: as §1

Substance | cleavage of substrate peptide (pmol product formed), preference by the enzyme [1] | Total (293T-APPsw101 cell line [2]) | A-beta 42/Total (293T-APPsw101 cell line [3]) | A-beta 42 (293T-APPsw101 cell line [3]; diluted 1:10 into pCMVi vector DNA, average of duplicate transfections)
EVKMDAEF [Wt] | preferred over the methionine to valine mutant (MV) substrate | – | – | –
Single Clone (β-Secretase): single cDNA clone from pool A-11 encoding human beta-secretase (SEQ ID NO:1) | – | 295,438 total Europium counts | 1.1 | 327,505 total Europium counts
EVNLDAEF [Sw] | clearly preferred by the enzyme over the wild type (Wt) substrate | – | – | –
